Assay results as given in PubChem BioAssay AID493225 (Broad Institute, 2011).
Values joined by “and” are separate entries in the source; they are usually repeats but may differ in a detail not shown here. Equal entries are not always repeated. Active and inactive are the calls of the source.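 Rule for the calls: active = fitted curve reaching 40% activation, where positive control equals 100, at or below the top valid dose; inconclusive = flat curve between 30 and 70% activation, or a poor fit; inactive = the rest, including activity in the opposite direction.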

biological target: Hypoxia-inducible factor 1-alpha (Homo sapiens) (UniProt Q16665); experiment: GFP-HIF1alpha nuclear accumulation inducers, dose response, orthogonal assay for HIF activator project, imaging, U2OS GFP-HIF1alpha, high content, dry powder, set 2 (AID 493225); settings: U2OS GFP-HIF1alpha nuclear intensity imaging
Sequence (Q16665 whole entry, looked up): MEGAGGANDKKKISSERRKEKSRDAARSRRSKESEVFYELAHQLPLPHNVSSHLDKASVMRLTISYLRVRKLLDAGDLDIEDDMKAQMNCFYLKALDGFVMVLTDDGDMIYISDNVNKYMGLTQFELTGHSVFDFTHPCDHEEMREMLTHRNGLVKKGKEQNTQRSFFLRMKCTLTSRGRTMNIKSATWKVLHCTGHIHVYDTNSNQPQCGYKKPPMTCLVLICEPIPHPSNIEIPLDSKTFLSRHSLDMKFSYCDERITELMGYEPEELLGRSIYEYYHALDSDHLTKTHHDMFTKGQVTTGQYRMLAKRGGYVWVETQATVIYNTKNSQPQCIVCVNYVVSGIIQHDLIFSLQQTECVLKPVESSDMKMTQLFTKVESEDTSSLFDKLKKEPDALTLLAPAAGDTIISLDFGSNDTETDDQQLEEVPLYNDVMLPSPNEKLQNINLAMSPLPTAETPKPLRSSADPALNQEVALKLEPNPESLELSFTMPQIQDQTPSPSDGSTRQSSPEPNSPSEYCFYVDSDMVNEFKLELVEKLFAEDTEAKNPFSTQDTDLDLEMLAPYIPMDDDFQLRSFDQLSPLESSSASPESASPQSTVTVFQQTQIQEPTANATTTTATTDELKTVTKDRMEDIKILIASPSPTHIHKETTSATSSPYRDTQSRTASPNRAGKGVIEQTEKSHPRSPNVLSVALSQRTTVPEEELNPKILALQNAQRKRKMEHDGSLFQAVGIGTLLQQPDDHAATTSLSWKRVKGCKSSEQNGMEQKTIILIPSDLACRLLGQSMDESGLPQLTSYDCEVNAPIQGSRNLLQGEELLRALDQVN

| Structure (SMILES) | AC40 |
| --- | --- |
| CC1CN(Cc2ccc(O)c3ncccc23)CC(C)O1 (configuration not stated) | 20.8 µM |
| c1ccc(-c2nnc(-c3ccccn3)nc2N2CCC(C3CCCCC3)C2)cc1 (configuration not stated) | 0.265 µM |
| c1ccc(-c2cccc(CNc3nc(-c4ccccn4)nnc3-c3ccccc3)c2)cc1 | 0.359 µM |
| Cc1ccc(CNc2nc(-c3ccccn3)nnc2-c2ccccc2)cc1C | 0.736 µM |
| C[C@@H](Nc1nc(-c2ccccn2)nnc1-c1ccccc1)c1ccccc1 | 1.5 µM |
| CCCCNC(=O)c1cc(-c2ccccc2)on1 | 7.07 µM |
| COc1ccc(CNc2nc(-c3ccccn3)nnc2-c2ccccc2)cc1 | 1.09 µM |
| Oc1ccc(CNC2CCc3ccccc32)c2cccnc12 (configuration not stated) | 13.5 µM |
| Oc1ccc(CN2CCC(Cc3ccccc3)CC2)c2cccnc12 | 8.98 µM |
| C[C@@H](Nc1nc(-c2ccccn2)nnc1-c1ccccc1)C1CCCCC1 | 0.456 µM |
| CC(C)(C)OC(=O)N1CCN(Cc2ccc(O)c3ncccc23)CC1 | 23.8 µM |
| c1ccc(-c2nnc(Nc3nc(-c4ccccn4)nnc3-c3ccccc3)s2)cc1 | 13.7 µM |
| Cc1ccccc1CNc1nc(-c2ccccn2)nnc1-c1ccccc1 | 0.628 µM |
| Cc1ccc(Nc2nc(-c3ccccn3)nnc2-c2ccccc2)cn1 | 6.61 µM |
| O=C(NC1Cc2ccccc2C1)c1cc(-c2ccccc2)on1 | > 38 µM (inactive) |
| c1ccc(CCNc2nc(-c3ccccn3)nnc2-c2ccccc2)cc1 | 4.89 µM |
| CC(C)(C)CCNC(=O)c1cc(-c2ccccc2)on1 | > 38 µM (inactive) |
| OCC1CCN(c2nc(-c3ccccn3)nnc2-c2ccccc2)CC1 | 11 µM |
| O=C(NC1CCc2ccccc2C1)c1cc(-c2ccccc2)on1 (configuration not stated) | > 38 µM (inactive) |
| O=C(NCCCN1CCOCC1)c1cc(-c2ccccc2)on1 | 17.7 µM |
| c1ccc(-c2nnc(-c3ccccn3)nc2NCC2CCOCC2)cc1 | 7.28 µM |
| c1ccc(CNc2nc(-c3ccccn3)nnc2-c2ccccc2)cc1 | 1.93 µM |

| Structure (SMILES) | AC40 |
| --- | --- |
| O=C(NCCCO)c1cc(-c2ccccc2)on1 | 6.49 µM |
| c1ccc(-c2nnc(-c3ccccn3)nc2N2CCN(c3ccncc3)CC2)cc1 | 3.16 µM |
| COc1ccccc1N1CCN(Cc2ccc(O)c3ncccc23)CC1 | 14.8 µM |
| O=C(NCCCn1ccnc1)c1cc(-c2ccccc2)on1 | 6.13 µM |
| O=C(Nc1nc2ccccc2s1)c1cc(-c2ccccc2)on1 | 34.9 µM |
| Cc1ccc(NC(=O)c2cc(-c3ccccc3)on2)cn1 | > 38 µM (inactive) |
| Oc1ccc(CNC2Cc3ccccc3C2)c2cccnc12 | 5.59 µM |
| CC(Nc1nc(-c2ccccn2)nnc1-c1ccccc1)c1ccccc1 (configuration not stated) | 1.1 µM |
| c1ccc(-c2nnc(-c3ccccn3)nc2N2CCC(c3ccccc3)C2)cc1 (configuration not stated) | 0.689 µM |
| Clc1cccc(CNc2nc(-c3ccccn3)nnc2-c2ccccc2)c1 | 0.74 µM |
| CC(C)(C)CCNc1nc(-c2ccccn2)nnc1-c1ccccc1 | 0.357 µM and 0.401 µM |
| c1ccc(-c2cnc(Nc3nc(-c4ccccn4)nnc3-c3ccccc3)s2)cc1 | 19.7 µM |
| COc1cccc(CNc2nc(-c3ccccn3)nnc2-c2ccccc2)c1 | 1.57 µM |
| c1ccc(-c2nnc(-c3ccccn3)nc2Nc2nc3ccccc3s2)cc1 | 0.491 µM |
| Oc1ccc(CN2CCc3ccccc3C2)c2cccnc12 | 4.51 µM and 18.1 µM |
| O=C(NCC1CC1)c1cc(-c2ccccc2)on1 | 15.4 µM |
| c1ccc(-c2nnc(-c3ccccn3)nc2NCC2CCCCC2)cc1 | 0.801 µM |
| c1ccc(-c2ccc(CNc3nc(-c4ccccn4)nnc3-c3ccccc3)cc2)cc1 | 0.164 µM |
| N#CC1(c2ccccc2)CCN(Cc2ccc(O)c3ncccc23)CC1 | 19.8 µM |
| c1ccc(-c2nnc(-c3ccccn3)nc2NCCN2CCOCC2)cc1 | 8.15 µM |
| CN1CCN(c2nc(-c3ccccn3)nnc2-c2ccccc2)CC1 | 5.53 µM |
| OCCCNc1nc(-c2ccccn2)nnc1-c1ccccc1 | 10.8 µM |

| Structure (SMILES) | AC40 |
| --- | --- |
| Oc1ccc(CN2CCC3CCCCC3C2)c2cccnc12 (configuration not stated) | 5.14 µM |
| Cc1cccc(CNc2nc(-c3ccccn3)nnc2-c2ccccc2)c1 | 1.31 µM |
| c1ccc(-c2csc(Nc3nc(-c4ccccn4)nnc3-c3ccccc3)n2)cc1 | 1.05 µM |
| OCC1CCN(Cc2ccc(O)c3ncccc23)CC1 | 3.69 µM |
| Cc1ccc(CNc2nc(-c3ccccn3)nnc2-c2ccccc2)cc1 | 0.727 µM |
| C=CCNc1nc(-c2ccccn2)nnc1-c1ccccc1 | 4.73 µM |
| O=C(NCCN1CCOCC1)c1cc(-c2ccccc2)on1 | 20.6 µM |
| c1ccc(-c2nnc(-c3ccccn3)nc2NCCc2ccccn2)cc1 | 6.24 µM |
| Cn1c(-c2ccccc2)cnc1Nc1nc(-c2ccccn2)nnc1-c1ccccc1 | > 13.5 µM (inactive) |
| c1ccc(-c2nnc(-c3ccccn3)nc2NCc2cccnc2)cc1 | 4.19 µM |
| CC(C)(C)c1ccc(CNc2nc(-c3ccccn3)nnc2-c2ccccc2)cc1 | 0.249 µM |
| C[C@H](Nc1nc(-c2ccccn2)nnc1-c1ccccc1)C1CCCCC1 | 0.635 µM |
| CN(C)c1nc(-c2ccccn2)nnc1-c1ccccc1 | 10.4 µM |
| c1ccc(-c2nnc(-c3ccccn3)nc2NCc2ccccn2)cc1 | 5.02 µM |
| Cc1cccc(Nc2nc(-c3ccccn3)nnc2-c2ccccc2)n1 | 2.72 µM |
| c1ccc(-c2nnc(-c3ccccn3)nc2NCC2CC2)cc1 | 2.07 µM |
| O=C(NCCCCO)c1cc(-c2ccccc2)on1 | 1.89 µM |
| c1ccc(-c2nnc(-c3ccccn3)nc2NCCCN2CCOCC2)cc1 | 7.52 µM |
| c1ccc(-c2nnc(-c3ccccn3)nc2Nc2cnc3ccccc3n2)cc1 | 1.94 µM |
| c1ccc(-c2nnc(-c3ccccn3)nc2N2CCC(N3CCOCC3)CC2)cc1 | 5.88 µM |
| O=C(NCCN1CCCCC1)c1cc(-c2ccccc2)on1 | > 38 µM (inactive) |

same assay, conditions: U2OS GFP-HIF1alpha nuclear intensity imaging; at 38 µM (top of the series)

| Structure (SMILES) | activation |
| --- | --- |
| O=C(Nc1nc(-c2ccccc2)cs1)c1cc(-c2ccccc2)on1 | 3.11% (inactive) |
| O=C(Nc1cnc2ccccc2c1)c1cc(-c2ccccc2)on1 | -3.02% (inactive) |
| O=C(NCC1CCCCC1)c1cc(-c2ccccc2)on1 | 8.55% (inactive) |
| O=C(c1cc(-c2ccccc2)on1)N1CCC(N2CCOCC2)CC1 | -1.88% (inactive) |
| O=C(NCc1ccccc1)c1cc(-c2ccccc2)on1 | 5.64% (inactive) |
| O=C(c1cc(-c2ccccc2)on1)N1CCN(c2ccncc2)CC1 | -1.92% (inactive) |
| Cc1ccc(CNC(=O)c2cc(-c3ccccc3)on2)cc1 | 7.41% (inactive) |
| Cc1cccc(CNC(=O)c2cc(-c3ccccc3)on2)c1 | 9.64% (inactive) |
| O=C(Nc1nnc(-c2ccccc2)s1)c1cc(-c2ccccc2)on1 | -3.81% (inactive) |
| Cc1cccc(NC(=O)c2cc(-c3ccccc3)on2)n1 | 0.577% (inactive) |
| O=C(Nc1ncc2ccccc2n1)c1cc(-c2ccccc2)on1 | 10.3% (inactive) |
| O=C(Nc1cn2ccccc2n1)c1cc(-c2ccccc2)on1 | 9.51% (inactive) |
| Cn1c(NC(=O)c2cc(-c3ccccc3)on2)nc2ccccc21 | -4.79% (inactive) |
| Cn1c(-c2ccccc2)cnc1NC(=O)c1cc(-c2ccccc2)on1 | 12.3% (inactive) |
| O=C(c1cc(-c2ccccc2)on1)N1CCC(N2CCCC2)CC1 | 3.26% (inactive) |
| O=C(c1cc(-c2ccccc2)on1)N1CCC(CO)CC1 | -3.23% (inactive) |
| O=C(Nc1ncc(-c2ccccc2)o1)c1cc(-c2ccccc2)on1 | -4.43% (inactive) |
| Cc1ccccc1CNC(=O)c1cc(-c2ccccc2)on1 | 3.19% (inactive) |
| O=C(c1cc(-c2ccccc2)on1)N1CCc2cccnc21 | 3.77% (inactive) |
| CN(C)CCNC(=O)c1cc(-c2ccccc2)on1 | 9.39% (inactive) |
| O=C(Nc1ccc2ccccc2n1)c1cc(-c2ccccc2)on1 | -3.66% (inactive) |
| CN1CCN(C(=O)c2cc(-c3ccccc3)on2)CC1 | -2.52% (inactive) |
